The IC50 is the concentration needed to halve the response being measured.

The structures appear in SMILES notation. Counter-ions that a name gives are not always drawn.

The first assay deals with T1, ACAT of HepG2 cells (Homo sapiens, UniProt P35610).
T1 construct: endogenous in cells; host or cells: HepG2
T1 sequence (P35610 1-550): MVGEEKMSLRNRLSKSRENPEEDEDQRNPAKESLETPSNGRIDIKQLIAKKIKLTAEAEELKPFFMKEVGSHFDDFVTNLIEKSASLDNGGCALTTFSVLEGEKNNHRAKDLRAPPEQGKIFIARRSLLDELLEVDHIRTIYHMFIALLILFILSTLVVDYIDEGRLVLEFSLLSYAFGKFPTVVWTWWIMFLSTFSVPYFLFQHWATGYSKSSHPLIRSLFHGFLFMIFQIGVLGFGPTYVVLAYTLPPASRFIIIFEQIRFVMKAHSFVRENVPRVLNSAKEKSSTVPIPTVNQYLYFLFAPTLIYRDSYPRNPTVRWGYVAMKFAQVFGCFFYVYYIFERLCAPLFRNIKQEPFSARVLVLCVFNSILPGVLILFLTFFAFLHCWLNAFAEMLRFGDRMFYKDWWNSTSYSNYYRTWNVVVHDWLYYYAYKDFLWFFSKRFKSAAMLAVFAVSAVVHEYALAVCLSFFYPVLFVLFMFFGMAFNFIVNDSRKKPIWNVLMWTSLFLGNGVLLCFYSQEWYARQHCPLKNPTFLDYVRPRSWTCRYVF
The assay is described as follows: Inhibitory activity against ACAT of HepG2 cells derived from human liver cancer cells. Particulars: radio-labelled oleic acid/BSA complex, cholesterol oleate produced. Type of assay: cell-based. How it is done: Inhibitory Activity against ACAT of HepG2 cells Derived from Human Liver Cancer Cells Inhibitory activities of the compounds of the present invention against ACAT were measured by the method described below. HepG2 cells derived from human liver cancer cells were used for the measurement of the ACAT activity. A complex of radio-labelled oleic acid and bovine serum albumin was added to a culture of the cells, and the activity was measured by observing the amount of radio-labelled cholesterol oleate produced from the radio-labelled oleic acid in the cells.
In turn, `CCCCCN(Cc1cc(-n2ccnc2)ccc1OC)C(=O)Nc1c(C)cccc1OCCCN1CCN(c2ccccc2)CC1` [Example 1, N-{5-(1-imidazolyl)-2-methoxyphenyl}methyl-N-(1-pentyl)-N'-[2-{3-(4-phenyl-1-piperazinyl)propoxy}-6-methylphenyl]urea] had an IC50 of 128 nM.
Consider `CCCCCN(Cc1cc(-n2ccnc2)ccc1OC)C(=O)Nc1c(C)cccc1OCCCN1CCN(c2ccccc2)CC1` [Example 2, N-{5-(1-imidazolyl)-2-methoxyphenyl}methyl-N-(1-pentyl)-N'-[2-{3-(4-phenyl-1-piperazinyl)propoxy}-6-methyphenyl]urea trihydrochloride], for which the IC50 worked out at 101 nM.
Consider `CCCCCCCN(Cc1cccc(OC)c1OCc1ccccc1)C(=O)Nc1c(OCCCN2CCN(c3ccccc3)CC2)ccc2c1CCCC2` [Example 8], for which the IC50 came to 414 nM.
As to `COc1cccc(CN(CCCc2ccccc2)C(=O)Nc2c(OCCCN3CCN(c4ccccc4)CC3)ccc3c2CCCC3)c1OCc1ccccc1` [Example 9], the midpoint of inhibition, the IC50, lay at 366 nM.
Still for that read-out and setting: as for `CCCCCN(Cc1ccc(-n2ccnc2)cc1)C(=O)Nc1c(OCCCN2CCN(c3ccccc3)CC2)ccc2c1CCCC2` [Example 10], the figure is 389 nM.
The molecule `CCCCCN(Cc1ccc(-n2ccnc2)cc1)C(=O)Nc1c(C)cccc1OCCCN1CCN(c2ccccc2)CC1` [Example 11] gave an IC50 of 189 nM.
Molecule `CCCCCN(Cc1ccc(-n2ccnc2)cc1)C(=O)Nc1c(C)cccc1OCCCN1CCN(c2ccccn2)CC1` [Example 12] had an IC50 of 595 nM.
On the same count and under the same terms, as for `COc1ccc(-n2ccnc2)cc1CN(Cc1ccccc1)C(=O)Nc1c(OCCCN2CCN(c3ccccc3)CC2)ccc2c1CCCC2` [Example 13], the figure is 67 nM; as for `COc1ccc(-n2ccnc2)cc1CN(Cc1ccccc1)C(=O)Nc1c(C)cccc1OCCCN1CCN(c2ccccc2)CC1` [Example 14], 240 nM; as for `CCCCCN(Cc1ccccc1-n1ccnc1)C(=O)Nc1c(C)cccc1OCCCN1CCN(c2ccccc2)CC1` [Example 15], 516 nM.
`CCCCCN(Cc1cc(-n2ccnc2)ccc1OC)C(=O)Nc1c(C)cccc1OCCCN1CCN(c2ccccn2)CC1` [Example 17]: the IC50 came out at 363 nM.
Molecule `CCCCCN(Cc1cc(-n2ccnc2)ccc1OC)C(=O)Nc1c(C)cccc1OCCN1CCN(c2ccccc2)CC1` [Example 18] gave an IC50 of 164 nM.
In the case of `CCCN(Cc1cc(-n2ccnc2)ccc1OC)C(=O)Nc1c(C)cccc1OCCCN1CCN(c2ccccc2)CC1` [Example 19], the IC50 is 156 nM.
`CCCCCN(Cc1cc(-n2ccnc2)cc(OC)c1OC)C(=O)Nc1c(C)cccc1OCCCN1CCN(c2ccccc2)CC1` [Example 20]: the IC50 was 851 nM.
As to `CCCN(Cc1cc(-n2ccnc2)cc2c1OCO2)C(=O)Nc1c(C)cccc1OCCCN1CCN(c2ccccc2)CC1` [Example 23], half-maximal inhibition (IC50) was put at 634 nM.
Consider `CCCCCN(Cc1cc(-n2ccnc2)cc2c1OCO2)C(=O)Nc1c(C)cccc1OCCCN1CCN(c2ccccc2)CC1` [Example 24], for which the IC50 was 449 nM.
Still for that read-out and setting: under `CCCCCN(Cc1cccc(OC)c1OCc1ccccn1)C(=O)Nc1c(C)cccc1OCCCN1CCN(c2ccccc2)CC1` [Example 26] stands 743 nM; under `CCCCCN(Cc1cccc(OC)c1OCc1ccccn1)C(=O)Nc1c(OCCCN2CCN(c3ccccc3)CC2)ccc2c1CCCC2` [Example 28], 732 nM.
The molecule `CCCCCN(Cc1cc(-n2ccnc2)ccc1OCc1ccccn1)C(=O)Nc1c(C)cccc1OCCCN1CCN(c2ccccc2)CC1` [Example 30] came in with an IC50 of 234 nM.
Same read-out and setting: as for `CCCCCN(Cc1cc(-n2ccnc2)ccc1OCc1ccccn1)C(=O)Nc1c(C)cccc1OCCCN1CCN(c2ccccc2)CC1` [Example 31], the figure is 138 nM; as for `CCCCCN(Cc1ccccc1OCc1ccccn1)C(=O)Nc1c(C)cccc1OCCCN1CCN(c2ccccc2)CC1` [Example 32], 600 nM; as for `CCCCCN(Cc1ccc(OCc2ccccn2)cc1)C(=O)Nc1c(C)cccc1OCCCN1CCN(c2ccccc2)CC1` [Example 34], 89 nM.
The molecule `CCCCCN(Cc1cccc(OCc2ccccn2)c1)C(=O)Nc1c(C)cccc1OCCCN1CCN(c2ccccc2)CC1` [Example 36] gave an IC50 of 270 nM.
Same read-out and setting: as for `CCCCCN(Cc1cccc(-n2ccnc2)c1)C(=O)Nc1c(C)cccc1OCCCN1CCN(c2ccccc2)CC1` [Example 37], the figure is 220 nM; as for `CCCCCN(Cc1ccc(-n2ccnc2)cc1)C(=O)Nc1c(C)cccc1OCCCN1CCN(c2ccccc2)CC1` [Example 38], 282 nM; as for `CCCCCN(Cc1ccc(OC)cc1OCc1ccccn1)C(=O)Nc1c(C)cccc1OCCCN1CCN(c2ccccc2)CC1` [Example 40], 320 nM.
The molecule `CCCCCN(Cc1ccc(OCc2ccccn2)c(OC)c1)C(=O)Nc1c(C)cccc1OCCCN1CCN(c2ccccc2)CC1` [Example 44] displayed an IC50 of 400 nM.
`CCCCCN(CCc1ccc(-n2ccnc2)c(OC)c1)C(=O)Nc1c(C)cccc1OCCCN1CCN(c2ccccc2)CC1` [Example 46] came in with an IC50 of 76 nM.
As for `CCCCCN(Cc1cc(-n2cccn2)ccc1OC)C(=O)Nc1c(C)cccc1OCCCN1CCN(c2ccccc2)CC1` [Example 47], the IC50 was found to be 81 nM.
The molecule `CCCCCN(Cc1cc(-n2cncn2)ccc1OC)C(=O)Nc1c(C)cccc1OCCCN1CCN(c2ccccc2)CC1` [Example 49] showed an IC50 of 45 nM.
The same measure, in the same setting: under `CCCCCN(CCc1cc(-n2ccnc2)cc2c1OCO2)C(=O)Nc1c(C)cccc1OCCCN1CCN(c2ccccc2)CC1` [Example 53] stands 606 nM; under `CCCCCN(Cc1cc(-n2cccc2)ccc1OC)C(=O)Nc1c(C)cccc1OCCCN1CCN(c2ccccc2)CC1` [Example 55], 483 nM; under `CCCCCN(CCc1cc(-n2ccnc2)ccc1OC)C(=O)Nc1c(C)cccc1OCCCN1CCN(c2ccccc2)CC1` [Example 56], 54 nM.
Take `CCCCCN(Cc1cc(OC)ccc1-n1ccnc1)C(=O)Nc1c(C)cccc1OCCCN1CCN(c2ccccc2)CC1` [Example 57]: the IC50 was determined as 220 nM.
Same read-out and setting: as for `O=C(Nc1c(OCCCN2CCN(c3ccccc3)CC2)ccc2c1CCCC2)N(CCCc1ccccc1)Cc1ccccc1OCc1ccccn1` [Example 67], the figure is 124 nM; as for `CCCN(Cc1ccccc1OCc1ccccn1)C(=O)Nc1c(OCCCN2CCN(c3ccccc3)CC2)ccc2c1CCCC2` [Example 68], 187 nM; as for `CCCN(Cc1ccccc1OCc1cccnc1)C(=O)Nc1c(OCCCN2CCN(c3ccccc3)CC2)ccc2c1CCCC2` [Example 69], 289 nM.
For `CCCN(Cc1ccccc1OCc1ccncc1)C(=O)Nc1c(OCCCN2CCN(c3ccccc3)CC2)ccc2c1CCCC2` [Example 70], the IC50 was determined as 631 nM.
`CN(Cc1ccccc1OCc1ccccn1)C(=O)Nc1c(OCCCN2CCN(c3ccccc3)CC2)ccc2c1CCCC2` [Example 71] showed an IC50 of 635 nM.
In turn, `COc1ccc(-n2ccnc2)cc1CN(C(=O)Nc1c(C)cccc1OCCCN1CCN(c2ccccc2)CC1)C1CCCC1` [Example 72] had an IC50 of 262 nM.
`COc1ccc(-n2ccnc2)cc1CN(CC(C)C)C(=O)Nc1c(C)cccc1OCCCN1CCN(c2ccccc2)CC1` [Example 73] registered an IC50 of 458 nM.
The molecule `COc1ccc(-n2ccnc2)cc1CN(C(=O)Nc1c(C)cccc1OCCCN1CCN(c2ccccc2)CC1)C(C)C` [Example 74] showed an IC50 of 386 nM.

Another assay has as its target T2, ACAT in foamed macrophages (Mus musculus, UniProt Q61263).
T2 construct: endogenous in cells; host or cells: peritoneal macrophages of ddY female mice, foamed with acetylated LDL
T2 sequence (Q61263 1-540): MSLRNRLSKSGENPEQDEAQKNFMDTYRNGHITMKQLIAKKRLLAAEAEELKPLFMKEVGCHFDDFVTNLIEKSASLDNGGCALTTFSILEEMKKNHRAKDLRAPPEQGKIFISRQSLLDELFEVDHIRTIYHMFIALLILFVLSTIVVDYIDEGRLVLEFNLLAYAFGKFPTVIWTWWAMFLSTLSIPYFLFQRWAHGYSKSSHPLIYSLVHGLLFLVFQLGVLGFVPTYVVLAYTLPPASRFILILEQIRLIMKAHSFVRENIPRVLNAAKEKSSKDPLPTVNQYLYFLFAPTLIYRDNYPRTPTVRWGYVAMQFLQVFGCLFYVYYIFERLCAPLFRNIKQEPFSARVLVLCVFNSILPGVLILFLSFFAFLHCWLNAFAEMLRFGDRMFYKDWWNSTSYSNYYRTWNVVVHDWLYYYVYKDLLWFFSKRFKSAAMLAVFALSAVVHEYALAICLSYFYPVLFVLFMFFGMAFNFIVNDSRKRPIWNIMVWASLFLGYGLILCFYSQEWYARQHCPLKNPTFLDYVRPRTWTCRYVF
The assay is described as follows: Inhibitory activity against ACAT derived from foamed macrophages. It is filed as cell-based, mouse (ddY female mice). Particulars: foamed macrophages from ddY female mice; acetylated LDL, 24 hours; cholesterol oleate produced; read-out: Inhibitory activity against ACAT, Macrophage (IC50). How it is done:
Inhibitory Activity against ACAT Derived from Foamed Macrophages
Inhibitory activity of the compounds of the present invention against ACAT in foamed macrophages was measured by the methods set out below. Acetylated low density lipoprotein was added to macrophages taken from abdominal cavities of ddY female mice and the cells were incubated for 24 hours to obtain foaming macrophages. These cells accumulated a large amount of cholesterol (ester) inside the cells, and are used as a model of arteriosclerosis lesion. ACAT activity of the cells was determined by adding a complex of radio-labelled oleic acid and bovine serum albumin to the cell culture, and observing the amount of radio-labelled cholesterol oleate that was produced from the radio-labelled oleic acid in the cells. The inhibitory activities of the compounds of the present invention against ACAT were measured as follows: percent reduction rates of enzymatic activity by the addition of given concentrations of test compounds was observed on the basis of the amount of the produced cholesterol oleate in the control group without the addition of a test compound, and by using the results, IC50, i.e., concentrations of tested compounds required to inhibit 50% of the enzyme activity, was calculated.
Take `CCCCCN(Cc1cc(-n2ccnc2)ccc1OC)C(=O)Nc1c(C)cccc1OCCCN1CCN(c2ccccc2)CC1` [Example 2, N-{5-(1-imidazolyl)-2-methoxyphenyl}methyl-N-(1-pentyl)-N'-[2-{3-(4-phenyl-1-piperazinyl)propoxy}-6-methyphenyl]urea trihydrochloride]: the IC50 amounted to 131 nM.
Same read-out and setting: under `CCCCCN(Cc1cc(-n2ccnc2)ccc1OC)C(=O)Nc1c(C)cccc1OCCN1CCN(c2ccccc2)CC1` [Example 18] stands 440 nM; under `CCCCCN(Cc1ccc(OCc2ccccn2)cc1)C(=O)Nc1c(C)cccc1OCCCN1CCN(c2ccccc2)CC1` [Example 34], 119 nM.

Source of the values: US5807860A, “Urea derivatives” (Mitsubishi Chemical Corporation, priority 1995, dated 1998).
